Paper PMC5186412 (Future medicinal chemistry, 2015)
Numbered stars: 1 amine (or outer) side, 2 acyl side, 3 side chain; on linkers, the order of the positions; unused ones are H or OH. Bridge positions count the residues as written; N and C are the ends. Square brackets hold non-standard residues; d marks the D form. Peptide text beside a SMILES is read from it. * marks the point of attachment. dLeu(3R-OH) = CC(C)[C@@H](O[*:3])[C@@H](N[*:1])C(=O)[*:2]; Gln(3S,4R-Me2) = C[C@H]([C@H](N)C(=O)O)[C@@H](C)C(N)=O; dTyr(βR-OMe) = CO[C@H](c1ccc(O)cc1)[C@@H](N)C(=O)O; Pip(4S-Cl) = O=C(O)[C@@H]1C[C@@H](Cl)CCN1; X6 = CCC(C)/C=C(C)/C=C\C(O)C(C)(O)C(=O)*; Abu(3R-NH2) = C[C@@H](N)[C@H](N)C(=O)O; NMeT = CN[C@H](C(=O)O)[C@@H](C)O

details: PAMPA

Row | Compound | passive permeability (in words)
1 | CC[C@@H](C)[C@@H]1NC(=O)CNC(=O)[C@@H](C)N(C)C(=O)[C@H](C(C)C)NC(=O)[C@H]([C@@H](C)O)N(C)C(=O)[C@H](C(C)C)NC(=O)[C@H]([C@@H](C)O)N(C)C(=O)[C@H](C(C)C)NC(=O)CNC(=O)[C@@H](Cc2ccccc2)N(C)C(=O)[C@H](C(C)C)NC(=O)[C@H](CO)NC(=O)[C@H](C(C)C)N(C)C(=O)[C@H](CO)N(C)C1=O [verrucamide B] | poor passive permeability
2 | destruxin A | moderate permeability
3 | CCC(C)/C=C(C)/C=C\C(O)C(C)(O)C(=O)NCC(=O)N[C@H](C(=O)N[C@H](C(=O)N[C@H](C(=O)N[C@H]1C(=O)N[C@H](COC)C(=O)NCC(=O)N[C@@H](C)C(=O)N(C)[C@@H]([C@@H](C)O)C(=O)N[C@H]([C@H](OC)c2ccc(O)cc2)C(=O)N2CC[C@H](Cl)C[C@H]2C(=O)O[C@@H]1C(C)C)[C@@H](C)[C@@H](C)C(N)=O)[C@@H](C)N)[C@@H](C)O (stereo partly drawn) [mirabamide C] (X6-GT[Abu(3R-NH2)][Gln(3S,4R-Me2)][dLeu(3R-OH)][dS](Me)GA[NMeT][dTyr(βR-OMe)][Pip(4S-Cl)]; ester 5-C) | poor passive permeability
4 | tentoxin | measurable permeability
5 | destruxin B | moderate permeability

same assay, conditions: PAMPA, 16 h

Row | Compound | logPe
6 | CC(C)[C@H]1C(=O)N(C)[C@@H](C)C(=O)NCCC[C@H](NC(=O)/C=C/C=C/C=O)C(=O)N1C [sclerotiotide F] | below the PAMPA assay’s detection limit
7 | desmethyldestruxin B | −6.67
8 | destruxin E2 chlorohydrin | −7.35
9 | destruxin B | −5.29
10 | CC[C@H](C)[C@@H]1NC(=O)c2csc(n2)[C@@H](C)NC(=O)[C@H]2N=C(O[C@@H]2C)[C@H](C(C)C)NC(=O)c2csc(n2)[C@@H](Cc2ccccc2)NC(=O)[C@H]2N=C1O[C@@H]2C [Patellamide C] | −4.7
11 | CC(C)[C@H]1C(=O)O[C@H](C(C)C)C(=O)N(C)[C@@H](C(C)C)C(=O)O[C@H](C(C)C)C(=O)N(C)[C@@H](C(C)C)C(=O)O[C@H](C(C)C)C(=O)N1C [Enniatin B] | −4.7
